EC50 data for three molecules are collected here from patent US20130261108A1, “COMPOSITIONS AND METHODS FOR MODULATING FARNESOID X RECEPTORS” (IRM LLC, priority 2010, published 2013).

One may read the EC50 as the concentration that produces a half-maximal response.

The target in the assay is T1, human Farnesoid X Receptor (FXR) ligand binding domain (Homo sapiens, UniProt Q96RI1).
T1 construct: purchased Invitrogen
T1 sequence (Q96RI1 193-472 isoform Q96RI1-2): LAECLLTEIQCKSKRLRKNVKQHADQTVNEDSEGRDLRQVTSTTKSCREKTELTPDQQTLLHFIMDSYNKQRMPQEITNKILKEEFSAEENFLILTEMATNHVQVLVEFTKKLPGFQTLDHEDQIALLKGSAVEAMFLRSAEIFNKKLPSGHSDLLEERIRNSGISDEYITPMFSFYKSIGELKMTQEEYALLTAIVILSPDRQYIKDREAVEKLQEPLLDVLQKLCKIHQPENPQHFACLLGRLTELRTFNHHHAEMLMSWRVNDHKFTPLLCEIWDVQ
As to the kind of experiment: Human GST-FXR LBD co-activator interaction assay (FXR HTRF assay). The class given is biochemical. To be noted: GST-FXR LBD with biotin-labeled SRC-1 peptide, FRET/HTRF, 2.5 hours at room temperature; response relative to GW4064; read-out: FXR coactivator interaction assay (HTRF) (EC50). The source says:
Human GST-FXR LBD Co-Activator Interaction Assay.
The FXR HTRF assay is a biochemical assay measuring the interaction between FXR and a coactivator protein (SRC1). The ligand-induced interaction with a coactivator protein is a critical step in transcriptional activation by FXR. Thus, this is an assay designed to measure FXR agonist activity of compounds.
The ligand-dependent interaction between GST-FXR LBD and a peptide derived from Steroid Receptor Coactivator-1 (SRC-1) was monitored by Fluorescence Resonance Energy Transfer (FRET). […] Test compounds (in DMSO solution) and detection reagents (anti-GST-Cryptate labeled antibody and Streptavidin-XL665 conjugate; CisBio) were added in assay buffer containing 50 mM KF. Plates are incubated at room temperature in the dark for 2.5 hours before reading on an Envision (PerkinElmer) at 665 nm and 590 nm.
A negative control (without Streptavidin-XL665) was run with each assay and represented the background fluorescence. A reference FXR agonist, GW4064, was included in each experiment as positive control. The efficacy of each test compound was compared to that of GW4064. At each concentration, the relative activity of the test compound was expressed as Response %=(Rsample−RDMSO)/(Rpositive−RDMSO), where Rsample is the HTRF response (expressed in Delta F %) for the test compound, Rpositive is the maximal response for GW4064 at saturating concentrations, and RDMSO is the response for DMSO control. The EC50 values were calculated using GraphPad Prism (GraphPad Software) using non-linear regression curve fit (log(agonist) vs. response−variable slope (four parameters)).
For `O=C(O)c1ccc2nc(N3CCC(OCc4c(CC5CCCCC5)noc4C4CC4)CC3)sc2c1` [Example 10-2, 2-(4-{[3-(cyclohexylmethyl)-5-cyclopropyl-1,2-oxazol-4-yl]methoxy}piperidin-1-yl)-1,3-benzothiazole-6-carboxylic acid], the EC50 came to 357 nM.
As for `FC(F)(F)Oc1ccccc1-c1noc(C2CC2)c1COC1CCN(c2nc3ccc(-c4nn[nH]n4)cc3s2)CC1` [Example 7-3, 2-[4-({5-cyclopropyl-3-[2-(trifluoromethoxy)phenyl]-1,2-oxazol-4-yl}methoxy)piperidin-1-yl]-6-(2H-1,2,3,4-tetrazol-5-yl)-1,3-benzothiazole], the EC50 was 433 nM.
For the molecule `COC(=O)CNC(=O)c1ccc2nc(N3CCC(OCc4c(-c5ccccc5OC(F)(F)F)noc4C4CC4)CC3)sc2c1` [Example 8-1A, Methyl 2-(2-(4-((5-cyclopropyl-3-(2-(trifluoromethoxy)phenyl)isoxazol-4-yl)methoxy)piperidin-1-yl)benzo[d]thiazole-6-carboxamido)acetate], the EC50 came to 456 nM.
